Results from publication PMC6615261, “Repurposing Azithromycin and Rifampicin Against Gram-Negative Pathogens by Combination With Peptidomimetics” (Frontiers in Cellular and Infection Microbiology, 2019).
Read-outs that look alike come from different tables or passages of the source.

Experiments:
[1] = tested on: K. pneumoniae ST258; test: MIC by broth microdilution; assay type: cell-based, Klebsiella pneumoniae; conditions: for Selectivity Index (SI) K. pneumoniae ST258: average of EC50 (HepG2, NIH 3T3) divided by MIC; for MIC K. pneumoniae ST258: peptidomimetic alone
Method: (§1) Minimal inhibitory concentrations (MICs) of peptidomimetics, antibiotics and their combinations were determined by broth microdilution according to the Clinical Laboratory Standards Institute performance standards (Clinical and Laboratory Standards Institute, [2013]). […] Since rifampicin and azithromycin mainly are used to treat infections with Gram-positive pathogens only CLSI clinical breakpoints were available for such bacteria. […] Potentiation of additional antibiotics by peptidomimetics was determined by using commercial 96-well plates containing varied concentrations of standard antibiotics (COMPAN1F; Trek Diagnostic Systems Inc.). The peptidomimetics were added immediately prior to inoculation with pathogen, and then MICs were determined as above. The MICs of peptidomimetic/antibiotic combinations were determined according to the method above, and the concentration ratios were selected based upon checkerboard results with 2:1 and 1:4 ratio of peptidomimetic with rifampicin or azithromycin, respectively. Minimal bactericidal concentrations (MBCs) were determined by using growth-curve assay plates. MIC plates were prepared as above, and then the plates were incubated at 37°C with continuous shaking. Growth was recorded at 10 min intervals as optical density (OD) at 600 nm during 24 h. At 24 h, for wells without growth, a sample was diluted 10-fold in sterile saline (0.9% sodium chloride) and plated onto MHA, following CLSI guidelines (Clinical and Laboratory Standards Institute, [1999]).

[2] = tested on: pro-inflammatory effect of LPS; set-up: method as in Skovbakke et al., 2015; conditions: at 1 μM; ref Skovbakke et al., 2015; cited from earlier work
[3] = MTS/PMS cell viability assay; assay type: cell-based; conditions: human, HepG2 hepatocytes, 1 h exposure, read-out: Cytotoxicity HepG2 EC50 ± SD
Method: (§2) NIH 3T3 and HepG2 cells (both from ATCC, Manassas, VA, USA) were cultured in flat-bottomed 96-well MicroWell™ plates (NUNC, Roskilde, Denmark) at seeding densities of ~23,000 and ~22,000 cells/well, respectively, and then cultured for 22–24 h under standard culturing conditions (37°C, 5% CO2, humidified air) to reach 80–90% confluence. NIH 3T3 were cultured in Dulbecco's modified Eagle's medium (DMEM) supplemented with 10% (v/v) newborn-calf serum (NCS) (Gibco, Paisly, UK), while HepG2 were cultured in Eagle's minimum essential medium (EMEM) supplemented with 10% (v/v) fetal bovine serum (FBS, Gibco, Paisly, UK), sodium pyruvate (1 mM), and non-essential amino acids (1%, v/v). Both culturing media were further supplemented with penicillin (100 U/mL), streptomycin (100 μg/mL), and L-glutamine (2 mM).
(§3) Effect on cell viability was determined in NIH 3T3 fibroblasts and HepG2 hepatocytes by using the MTS/PMS assay measuring metabolic activity. Briefly, the adhered cells were washed with 37°C Hanks' balanced salt solution (HBSS from Sigma-Aldrich, St. Louis, MO, USA), containing 10 mM HEPES (AppliChem, Darmstadt, Germany), and adjusted to pH 7.4, and were then exposed for 1 h to 100 μL of test compound(s) dissolved in the appropriate culturing medium without serum for each cell line. After exposure the cells were washed with HBSS containing 10 mM HEPES (pH 7.4) and 100 μL of an MTS/PMS solution, consisting of 240 μg/mL MTS (Promega, Madison, WI, USA) and 2.4 μg/mL PMS (SigmaAldrich, Buchs, Switzerland) in HBSS, was added to the cells, which then were incubated for 1 h at 37°C with horizontal shaking under light protection. Absorbance was measured at 492 nm by using a POLARstar OPTIMA plate reader (BMG Labtech, Offenburg, Germany). The relative viability was calculated according to Equation (1) with absorbance values obtained after incubation of cells with test compound; incubation with SDS (0.2%, w/v in medium) defined 100% cell death (Abspos), while the absorbance of cells incubated with medium defined 0% cell death (Absneg).
(§4) (1) Relative viability(%)=(Abssample-Abspos)/(Absneg-Abspos)×100%
(§5) EC50 values were calculated by using GraphPad Prism 7 (GraphPad Software, La Jolla, CA, USA) via fitting of the relative cell viability to the concentration of the test compound by using Equation (2):
(§6) (2) Relative viability(%)= Top-Bottom/1+10^(LogIC50-Log[peptidomimetic]) ×Hill slope
(§7) With top and bottom representing the mean highest and lowest observed values, respectively. The Hill slope represents a factor for the steepness of the linear part of the curve. In order to prevent erroneous calculation, the top and bottom values were constrained to 100 and 0%, respectively. Data were collected from technical triplicates. The selectivity index was calculated as the average effect on cell viability (EC50 values for HepG2 and NIH 3T3 cells) divided by the MIC.

[4] = tested on: E. coli ST131; test: MIC by broth microdilution; assay type: cell-based, Escherichia coli; conditions: for Selectivity Index (SI) E. coli ST131: average of EC50 (HepG2, NIH 3T3) divided by MIC; for MIC E. coli ST131: peptidomimetic alone
Method: as §1

[5] = tested on: MDR E. coli ST131; test: Screening of peptidomimetic-antibiotic combinations (growth / growth inhibition); assay type: cell-based, Escherichia coli; set-up: key to Growth in combination with RIF / Growth in combination with AZM: Growth (+); growth inhibition (–); conditions: for Growth in combination with AZM: peptidomimetic 0.5 μM + azithromycin 1 μg/mL; for Growth in combination with RIF: peptidomimetic 0.5 μM + rifampicin 0.5 μg/mL
[6] = tested on: P. aeruginosa ATCC 27853; test: MIC by broth microdilution; assay type: cell-based, Pseudomonas aeruginosa; conditions: for Selectivity Index (SI) P. aeruginosa ATCC 27853: average of EC50 (HepG2, NIH 3T3) divided by MIC; for MIC P. aeruginosa ATCC 27853: peptidomimetic alone
Method: as §1

[7] = tested on: K. pneumoniae ST258; test: Screening of peptidomimetic-antibiotic combinations (growth / growth inhibition); assay type: cell-based, Klebsiella pneumoniae; set-up: key to Growth in combination with RIF / Growth in combination with AZM: Growth (+); growth inhibition (–); conditions: for Growth in combination with AZM: peptidomimetic 0.5 μM + azithromycin 1 μg/mL; for Growth in combination with RIF: peptidomimetic 0.5 μM + rifampicin 0.5 μg/mL
[8] = tested on: K. pneumoniae ST258; conditions: for Antibiotic MIC in combination (AZM): MIC of azithromycin combined with the labelled peptidomimetic; for Antibiotic MIC in combination (RIF): MIC of rifampicin combined with the labelled peptidomimetic; for Peptidomimetic MIC alone: checkerboard
Method in brief: (§8)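 Two-dimensional checkerboard broth microdilution in MHB II, with twofold dilutions of peptidomimetic and antibiotic on crossed axes and 18–20 h incubation per CLSI. FICI = MICA(A+B)/MICA(alone) + MICB(A+B)/MICB(alone); ≤0.5 is interpreted as synergy.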

[9] = tested on: P. aeruginosa ATCC 27853; conditions: for Antibiotic MIC in combination (AZM) / Antibiotic MIC in combination (RIF) / Peptidomimetic MIC alone / Peptidomimetic MIC in combination: P. aeruginosa ATCC 27853; for Antibiotic MIC in combination (AZM): MIC of azithromycin combined with the labelled peptidomimetic; for Antibiotic MIC in combination (RIF): MIC of rifampicin combined with the labelled peptidomimetic; for Peptidomimetic MIC alone: checkerboard; for Reduction of the MIC of azithromycin: P. aeruginosa, sub-MIC concentrations of peptidomimetic
Method in brief: as §8

[10] = tested on: E. coli ST131; conditions: for Antibiotic MIC in combination (AZM): MIC of azithromycin combined with the labelled peptidomimetic; for Antibiotic MIC in combination (RIF): MIC of rifampicin combined with the labelled peptidomimetic; for Peptidomimetic MIC alone: checkerboard
Method in brief: as §8

[11] = MTS/PMS cell viability assay; assay type: cell-based, mouse; conditions: mouse, NIH 3T3 fibroblasts, 1 h exposure, read-out: Cytotoxicity NIH 3T3 EC50 ± SD
Method: as §2, §3, §4, §5, §6, §7

[12] = tested on: NIH 3T3 and HepG2 cells; test: Effect on viability of mammalian cells (both cell lines); assay type: cell-based, mouse and human
Method: as §2, §3, §4, §5, §6
With top and bottom representing the mean highest and lowest observed values, respectively. The Hill slope represents a factor for the steepness of the linear part of the curve. […] The selectivity index was calculated as the average effect on cell viability (EC50 values for HepG2 and NIH 3T3 cells) divided by the MIC.

[13] = tested on: NIH 3T3 cells; test: MTS/PMS cell viability assay; assay type: cell-based, mouse; conditions: 1 h exposure, read-out: Cytotoxicity NIH 3T3 EC50 ± SD
Method: as §2, §3, §4, §5, §6, §7

MIC K. pneumoniae ST258 [1] [µM] | MIC E. coli ST131 [4] [µM] | MIC P. aeruginosa ATCC 27853 [6] [µM] | Antibiotic MIC in combination (AZM) [8] [µg/mL] | Antibiotic MIC in combination (RIF) [8] [µg/mL] | Peptidomimetic MIC alone [8] [µM] | Antibiotic MIC in combination (AZM) [9] [µg/mL] | Antibiotic MIC in combination (RIF) [9] [µg/mL] | Peptidomimetic MIC alone [9] [µM] | Peptidomimetic MIC in combination ([9]; combined with AZM) [µM] | Peptidomimetic MIC in combination ([9]; combined with RIF) [µM] | Reduction of the MIC of azithromycin [9] | Compound | Selectivity Index (SI) K. pneumoniae ST258 [1] | EC50 at 1 h [3] [µM] | Selectivity Index (SI) E. coli ST131 [4] | Growth in combination with AZM [5] | Growth in combination with RIF [5] | Selectivity Index (SI) P. aeruginosa ATCC 27853 [6] | Growth in combination with AZM [7] | Growth in combination with RIF [7] | also measured
64 | 4 | 16 | 4 | 1 | 64 | 1 | 1 | 16 | 4 | 4 | 32- to 512 fold | CC(=O)N[C@@H](CCCCN)C(=O)N(CCC(=O)N[C@@H](CCCCN)C(=O)N(CCC(=O)N[C@@H](CCCCN)C(=O)N(CCC(=O)N[C@@H](CCCCN)C(=O)N(CCC(=O)N[C@@H](CCCCN)C(=O)N(CCC(=O)N[C@@H](CCCCN)C(=O)N(CCC(N)=O)Cc1ccccc1)Cc1ccccc1)Cc1ccccc1)Cc1ccccc1)Cc1ccccc1)Cc1ccccc1 [Peptidomimetic 14, Ac-(Lys-βNPhe)6-NH2] | (4) | 234 | (70) | – | – | (17) | + | + | Block of the pro-inflammatory effect of LPS [2]: block the pro-inflammatory effect of LPS; Antibiotic MIC in combination (AZM) [10]: 1 µg/mL; Antibiotic MIC in combination (RIF) [10]: 0.25 µg/mL; Peptidomimetic MIC alone [10]: 4 µM; Peptidomimetic MIC in combination ([10]; combined with AZM): 0.25 µM; Peptidomimetic MIC in combination ([10]; combined with RIF): 0.25 µM; EC50 at 1 h [11]: 323 µM
16 | 2 | 16 | 4 | 0.5 | 16 | 0.5 | 0.06 | 16 | 2 | 4 | 32- to 512 fold | COCCOCCOCC(=O)N[C@@H](CCCCN)C(=O)N(CCC(=O)N[C@@H](CCCCNC(=N)N)C(=O)N(CCC(=O)N[C@@H](CCCCN)C(=O)N(CCC(=O)N[C@@H](CCCCNC(=N)N)C(=O)N(CCC(=O)N[C@@H](CCCCN)C(=O)N(CCC(=O)N[C@@H](CCCCNC(=N)N)C(=O)N(CCC(N)=O)[C@@H](C)c1ccccc1)[C@@H](C)c1ccccc1)[C@@H](C)c1ccccc1)[C@@H](C)c1ccccc1)[C@@H](C)c1ccccc1)[C@@H](C)c1ccccc1 [Peptidomimetic 28, TODA-(Lys-βNspe-hArg-βNspe)3-NH2] | (10) | 118 ± 2.05 | (84) | – | – | (10) | + | + | EC50 [12]: > 100 µM; Peptidomimetic MIC in combination ([8]; combined with AZM): 2 µM; Peptidomimetic MIC in combination ([8]; combined with RIF): 1 µM; Antibiotic MIC in combination (AZM) [10]: 0.5 µg/mL; Antibiotic MIC in combination (RIF) [10]: 0.13 µg/mL; Peptidomimetic MIC alone [10]: 2 µM; Peptidomimetic MIC in combination ([10]; combined with AZM): 0.5 µM; Peptidomimetic MIC in combination ([10]; combined with RIF): 0.5 µM; EC50 [13]: 218 ± 18.1 µM; EC50 at 1 h [11]: ~218 µM
